Ends that are not written are not given here.
Test system: HUVEC
Assay: HUVEC growth inhibition test (WST-1 assay)
Conditions: 25 ng/mL VEGF, 24 hours

## YT1-Cem: non-VEGF-binding helix-loop-helix peptide YT1-Cys (SEQ ID NO: 18) reacted with CemCH2-S-TNB; control complex (CAELAALEAELAALEGGGGGGGKLAALKAKLAALKA; also: Cem conjugated via the Cys (CemCH2-S-TNB reaction))
  cell growth inhibition: did not inhibit cell growth

From US20180264124A1, “DRUG COMPLEX” (Shimadzu Corporation, priority 2015, published 2018)
